The subject of one experiment is LDLR−/− mice. In words: LDLR−/− Serum Lipid Modulation. Particulars: male LDLR−/− mice on western diet, 10 mg/kg once daily oral gavage, seven days. Type of experiment: in vivo. The procedure:
LDLR−/− Serum Lipid Modulation
Acclimate animals for two weeks prior to study initiation. Maintain mice on a 12:12 hour light-dark cycle at 21° C. Provide deionized water ad libitum and maintain for two weeks on ‘western diet’ TD 88137 Diet (42% fat, 0.15% cholesterol, Harlan Teklad, Madison, Wis., USA) ad libitum. Optimize groups of five ten-week-old male LDLR−/− mice based on serum triglyceride and cholesterol levels. […] Separate lipoprotein fractions by FPLC, and quantify cholesterol with an in-line detection system. […] The colored product produced in the presence of cholesterol is monitored in the flow stream at 505 nm, and the analog voltage from the monitor is converted to a digital signal for collection and analysis. The change in voltage corresponding to change in cholesterol concentration is plotted vs. time, and the area under the curve corresponding to the elution of VLDL-C and HDL-C is calculated using Turbo Chrome® version 4.12F12 software (PerkinElmer Corporation). […]

The target of another experiment is T1, Human FXR (Homo sapiens, UniProt Q96RI1).
T1 construct: expressed in transfected cells
T1 sequence (Q96RI1 1-486): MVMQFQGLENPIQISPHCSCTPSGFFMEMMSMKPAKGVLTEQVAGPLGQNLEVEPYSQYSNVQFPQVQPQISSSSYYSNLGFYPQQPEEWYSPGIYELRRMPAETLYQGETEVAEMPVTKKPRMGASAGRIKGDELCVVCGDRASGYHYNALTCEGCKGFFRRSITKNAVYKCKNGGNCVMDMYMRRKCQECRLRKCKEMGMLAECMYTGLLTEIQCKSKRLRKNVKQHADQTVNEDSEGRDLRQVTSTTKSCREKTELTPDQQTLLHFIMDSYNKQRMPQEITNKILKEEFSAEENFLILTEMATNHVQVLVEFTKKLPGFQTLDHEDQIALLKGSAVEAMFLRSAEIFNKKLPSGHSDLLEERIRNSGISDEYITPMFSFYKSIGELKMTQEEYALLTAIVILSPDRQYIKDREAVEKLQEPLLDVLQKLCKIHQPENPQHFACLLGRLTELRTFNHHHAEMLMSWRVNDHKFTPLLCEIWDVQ
In words: Human FXR/FXR-Response Element Luciferase Reporter Cotransfection Assay. Type of experiment: cell-based. The procedure:
Human FXR/FXR-Response Element Luciferase Reporter Cotransfection Assay
Compounds of the present invention are tested using the Human FXR/FXR-Response Element Luciferase Reporter Cotransfection Assay. The assay is performed essentially as described in J. Biological Chem. 2006, 281 (52), 39831-39838, except that 10 μg total DNA per million cells is used. One of skill in the art is able to perform this assay without undue experimentation.

In experiment [1] the target is T2, human FXR ligand-binding domain (Homo sapiens, UniProt Q96RI1).
T2 construct: purchased Invitrogen Corporation
T2 sequence (Q96RI1 242-472 isoform Q96RI1-2 limits assumed): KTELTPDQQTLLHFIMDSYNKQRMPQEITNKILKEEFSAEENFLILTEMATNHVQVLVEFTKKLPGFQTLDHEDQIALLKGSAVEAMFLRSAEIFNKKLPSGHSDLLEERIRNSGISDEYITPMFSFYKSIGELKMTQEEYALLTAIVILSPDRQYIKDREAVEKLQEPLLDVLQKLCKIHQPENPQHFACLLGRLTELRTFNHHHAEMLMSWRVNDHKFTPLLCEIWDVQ
T2 sequence (Q15788 600-774 partner limits assumed): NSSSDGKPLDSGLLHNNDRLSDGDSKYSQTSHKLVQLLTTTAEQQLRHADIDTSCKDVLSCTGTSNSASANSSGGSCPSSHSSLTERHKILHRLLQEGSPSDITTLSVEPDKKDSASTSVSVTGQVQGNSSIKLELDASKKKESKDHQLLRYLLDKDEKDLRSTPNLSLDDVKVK
In words: FXR-SRC-1 Cofactor Recruitment Assay (Alpha Screen). Type of experiment: biochemical. As to conditions: FXR-SRC-1 interaction. The procedure: FXR-SRC-1 Cofactor Recruitment Assay
Compounds are evaluated by an FXR-SRC-1 Cofactor Recruitment assay using the Alpha (Amplified Luminescent Proximity Homogeneous Assay) Screen technology according to the manufacturer instructions (Perkin Elmer Corporation, Norwalk, Conn., USA) at various concentrations. Mix purified 6-HIS-tagged human FXR ligand-binding domain (amino acids 242-472), purified GST-tagged human SRC-1 nuclear receptor-interacting domain (amino acids 220-394), Nickel Chelate donor beads (Perkin Elmer Corporation) and Anti-GST antibody acceptor beads (Perkin Elmer Corporation) together and aliquot 12 μL per well into 384 well plates. Add compounds in 3 μL per well for a total assay volume of 15 μL and incubate at room temperature in the dark for 4 hours. After incubation, compounds that bind FXR and induce the interaction between the FXR and SRC-1 (available from Invitrogen Corporation Carlsbad, Calif., USA) would bring the two bead types into proximity generating luminescence that is quantified. Calculate EC50 values. Exemplified compounds of the invention are found to be effective in the SRC-1 FXR interaction assay with EC50s of about 38-5200 nM.

As for `Cc1cc(N2CCC(OCc3c(-c4c(Cl)cccc4Cl)noc3C3CC3)CC2)ccc1C(=O)O` [Example 9, 4-{4-[5-Cyclopropyl-3-(2,6-dichloro-phenyl)-isoxazol-4-ylmethoxy]-piperidin-1-yl}-2-methyl-benzoic acid], in the experiment on LDLR−/− mice, the lowers total cholesterol result is reported as “about 76%” and the lowers triglycerides result is reported as “about 75%”.
Take `O=C(O)c1ccc(N2CCC(OCc3c(-c4c(Cl)cccc4Cl)noc3C3CC3)CC2)cc1` [Example 7, 4-{4-[5-Cyclopropyl-3-(2,6-dichloro-phenyl)-isoxazol-4-ylmethoxy]-piperidin-1-yl}-benzoic acid]: the figures for the concentration for a half-maximal effect (EC50) (on Human FXR; in experiment [1]) were 220 nM and roughly 325 nM, respectively.

For the origin of these results see patent US8153624B2, “Compounds and methods for modulating FXR” (Eli Lilly and Company, priority 2007, dated 2012).
